Reference: patent EP0197664A2, “2-Aminopyrimidinone derivatives” (SMITH KLINE & FRENCH LABORATORIES LIMITED, priority 1985, dated 1986)

Tests used:
anaesthetised cats = experiment: Cardiac stimulant activity in vivo (anaesthetised cats, left ventricular dp/dt max); details: Felis catus, read-out: ED50 (dose to increase left ventricular dp/dt max by 50%); anaesthetised cats pretreated with pempidine and propranolol, intravenous
Text: The dose to increase left ventricular dp/dt max by 50% is given as the EDso.

right ventricle strips = experiment: Cardiac stimulant activity in vitro (force of contraction of electrically stimulated ventricular strips); assay type: cell-based, Guinea pigs; details: Cavia porcellus, read-out: EC50 (50% increase in the force of contraction of the ventricular strips); guinea pig right ventricular strips, 1.0 Hz stimulation, Krebs Henseleit solution at 37°C, cumulative concentration response
Description: The compounds of formula (I) and their pharmaceutically acceptable salts are tested for cardiac stimulant activity following a procedure based on that of S.C. […] Guinea pigs (500-700 g) of either sex are sacrificed and the hearts are quickly removed and transferred to a dissecting dish containing oxygenated bathing fluid. While in the bathing medium, the right ventricle is cut into two strips. The strips are each suspended in a 50 ml bath containing Krebs Henseleit solution at 37°C, and the bath is bubbled with 95% oxygen and 5% carbon dioxide. The ventricular strips are electrically stimulated at a frequency of 1.0 Hz, at double the threshold voltage. A resting tension of 1.0 g is applied to the strips and the tension is kept constant by readjustment during an equilibration period of 60 minutes. The bathing fluid is frequently changed during this period. When a steady base line is obtained, a compound under test is added to the bathing fluid and a cumulative concentration response curve is plotted.

Row | SMILES | ED50 (anaesthetised cats) [µmol/kg] | EC50 (right ventricle strips) [µM]
1 | CC1CC(=O)NN=C1c1ccc(Nc2nc(=O)cc[nH]2)cc1 (centres unmarked) [Example 1, 6-[4-(1,4-Dihydro-4-oxo-2-pyrimidinylamino)phenyl]-5-methyl-4,5-dihydro-3(2H)-pyridazinone] | 0.06 | 
2 | CC1CC(=O)NN=C1c1ccc(Nc2nc(=O)c3ccccc3[nH]2)cc1 (centres unmarked) [Example 4, 6-[4-(1,4-Dihydro-4-oxo-2-quinazolinyiamino)-phenyl]-5-methyl-4,5-dihydro-3(2H)-pyridazinone] | 0.41 | 
3 | Cc1c[nH]c(Nc2ccc(C3=NNC(=O)CC3C)cc2)nc1=O (centres unmarked) [Example 3, 6-[4-(1,4-Dihydro-5-methyl-4-oxo-2-pyrimidinylamino)phenyl]-5-methyl-4,5-dihydro-3-(2H)-pyridazinone] | 3.03 | 
4 | Nc1cc(-c2ccncc2)c[nH]c1=O [Amrinone, reference compound] | 5.6 | 15
